# According to patent US20250177582A1, “HIGH-AFFINITY LIGANDS OF FIBROBLAST ACTIVATION PROTEIN FOR TARGETED DELIVERY APPLICATIONS” (PHILOCHEM AG, priority 2022, published 2025):
# Assays:
# [1] = molecular target: murine FAP (Mus musculus (Mouse), UniProt P97321); experiment: Inhibition assay of FAP (fluorogenic substrate Z-Gly-Pro-AMC); assay type: biochemical; settings: substrate Z-Gly-Pro-AMC 20 μM; 66 pM murine FAP; room temperature
# Experimental: (§1) Inhibition assay of FAP. The compounds were precisely weighed (range between […]) on a micro-scale (HuberLab, Sartorius QUINTIX35-1S) and dissolved in DMSO to prepare stock solutions at 1 mM. Stock solutions were further diluted with FAP activation buffer (50 mM Tris, 100 mM NaCl, 1 mM EDTA, pH=7.4) to a final DMSO concentration of 10% v/v. 10 μL of each inhibitor were serially diluted in a 384 well plate (grenier-bio one, PS, F-bottom, Black, non-binding) with 10 μL of 10% DMSO FAP buffer (1:1 dilution). FAP (human and murine) was diluted to the desired concentration with FAP activation buffer and added to the serial dilution of inhibitor (10 μL for each well). Each protein-inhibitor solution was incubated for 30 minutes at room temperature. Each measurement was performed with an enzyme concentration (FAP) lower than the expected IC50. A 60 μM solution of substrate (Z-Gly-Pro-AMC) in FAP activation buffer (<1% DMSO) was added to the plate (10 μL for each well). The reaction was incubated from 1 minute to 48 hours (see FIG. 2) at room temperature (22° C.-25° C.). The emission was read at 465 nm (excitation wavelength 360 nm) for 40 μs by Tecan Spark (s.n. 1808004082). The following controls were added to each row: positive control (no inhibitor control, 10 μL of 10% DMSO FAP buffer+10 μL of FAP solution+10 μL of substrate solution), negative control (no protein control, 10 μL of 10% DMSO FAP buffer+10 μL of FAP activation buffer+10 μL of substrate solution).
# (§2) Normalization of values: The “% of FAP activity” can be calculated with the following formula:
# (§3) FIG. 3: Inhibition assay performed with compounds 1, 2, 3, 4, 5, 6, 8 against a) 66 pM human FAP and b) 66 pM murine FAP. The concentration of substrate (Z-Gly-Pro-AMC) was kept constant=20 μM. The assay was incubated for 48 hours at 22.6° C. Error bars display SEM.
# (§4) FIG. 4: a) Inhibition assay performed with compounds 8, 9 and 10 against 66 pM human FAP. The assay was incubated for 17 hours at 25° C. b) Inhibition assay performed with compound 9 against 66 pM murine FAP. The assay was incubated for 17 hours at 25° C. In both assays the concentration of substrate (Z-Gly-Pro-AMC) was kept constant=20 μM. Error bars display SEM.
# [2] = Serum stability; assay type: in vitro ADME; settings: mouse, in vitro, time points 0 to 48 h
# Experimental: In two separate Eppendorf, 4 μL of compound 28 and 38 (1 mM solution in DMSO) and 36 μL of serum for each time point were mixed. After each specific time point, 40 μL of mixture were freezed in liquid nitrogen and then stored at −20° C. Once all the samples were collected, samples were defrosted at 24° C. and 300 μL of ACN were added. The samples were then centrifuged at 10′000 RPM for 5 minutes. 200 μL of the supernatant were transferred to a second Eppendorf tube and dried under vacuum for 2 h. The residue was carefully resuspended in 30 μL of mQ Water:acetonitrile=9:1 mixture (with 0.1% v/v of formic acid) and analysed by LC-MS. Each time point was performed in triplicate. The percentage of intact […] was determined extracting the area of the UV peak. The obtained values were normalized on the average area at time point corresponding to 0 hours.
# [3] = molecular target: human FAP (Homo sapiens (Human), UniProt Q12884); experiment: Inhibition assay of FAP (fluorogenic substrate Z-Gly-Pro-AMC); assay type: biochemical; settings: substrate Z-Gly-Pro-AMC 20 μM; FAP concentration lower than expected IC50 (66 pM in FIG. 3, 4); room temperature; read-out: IC50 vs human FAP
# Experimental: as §1, §2
# The concentration of substrate (Z-Gly-Pro-AMC) was kept constant=20 μM. Dashed lines corresponds to sets of data with unstable fitting. […] Error bars display SEM.
# as §3, §4
# FIG. 19. A: Chemical structures and corresponding IC50(hFAP) values of compounds according to the present invention. B: Chemical structures and corresponding IC50 values of compounds where the propargyl moiety at position AA^2 was replaced by different groups (Me, iPr, Bn) using both R and S stereoisomers. The sites of modification have been highlighted with arrows. Each measurement was performed with a FAP concentration lower than the expected IC50. Depending on FAP concentration, the fluorescence was measured between 10 minutes and 48 h (at room temperature) after the addition of the fluorogenic substrate (Z-Gly-Pro-AMC). IC50 values and standard errors were calculated using “[Inhibitor] vs. response—Variable slope (four parameters)” fitting (Graphpad Prism). […] By introducing the quinoline-based moiety, a single-digit nanomolar inhibitor was obtained. […] The replacement of propargylglycine with S-phenylalanine improved potency of the lead compound of additional ˜2-folds (compound 14).
# [4] = tested on: FAP negative SKRC-52.wt; experiment: Flow cytometry (FACS) binding; assay type: cell-based; settings: 100 nM; 1 h on ice
# Experimental: (§5) Cells were detached from culture plates using Accutase cell detachment solution, counted and suspended to a final concentration of 1.25×10≢cell/100 μL in a solution of FACS buffer (1% bovine serum albumin, 2 mM EDTA, in 500 mL PBS pH 7.4). Aliquots of 2.5×10≡cells (200 μL) were spun down and resuspended in solutions of compound 36 and compound 29 (100 μL; 100 nM) in FACS buffer and incubated on ice in the dark for 1 h. Cells were washed once with 200 μl FACS (1% v/v)/PBS (pH=7.4), spun down, resuspended in a solution of FACS buffer and analyzed via a BD LSRFortessa™ Cell Analyzer (Biosciences). FlowJo Version 8.7 (Treestar) was used for the data analysis and visualization.
# [5] = tested on: FAP positive SKRC-52.hFAP; experiment: Flow cytometry (FACS) binding; assay type: cell-based; settings: 100 nM; 1 h on ice
# Experimental: as §5
# [6] = tested on: SK-RC-52.hFAP cells; experiment: Confocal microscopy on living cells; assay type: cell-based; settings: 150 nM; imaged 1 h after incubation
# Experimental: SK—RC-52.hFAP and SK—RC-52.wt cells were seeded into g-Slide 8 Well high Glass Bottom at a density of 5×10^4 cells per well in 300 μL of RPMI medium supplemented with 10% fetal calf serum (FCS), AA, and Hepes (10 mM) and allowed to grow overnight under standard culture conditions. Hoechst 33342 nuclear dye was used to stain nuclear structures. The culture medium was replaced with fresh medium containing either compound 36 or 29 (150 nM). Randomly selected colonies were imaged 1 h after incubation on the confocal microscope Zeiss LSM 880 airyscan (Zeiss). Fiji was used for the data processing and visualization.
# Sequence of murine FAP (P97321 whole entry): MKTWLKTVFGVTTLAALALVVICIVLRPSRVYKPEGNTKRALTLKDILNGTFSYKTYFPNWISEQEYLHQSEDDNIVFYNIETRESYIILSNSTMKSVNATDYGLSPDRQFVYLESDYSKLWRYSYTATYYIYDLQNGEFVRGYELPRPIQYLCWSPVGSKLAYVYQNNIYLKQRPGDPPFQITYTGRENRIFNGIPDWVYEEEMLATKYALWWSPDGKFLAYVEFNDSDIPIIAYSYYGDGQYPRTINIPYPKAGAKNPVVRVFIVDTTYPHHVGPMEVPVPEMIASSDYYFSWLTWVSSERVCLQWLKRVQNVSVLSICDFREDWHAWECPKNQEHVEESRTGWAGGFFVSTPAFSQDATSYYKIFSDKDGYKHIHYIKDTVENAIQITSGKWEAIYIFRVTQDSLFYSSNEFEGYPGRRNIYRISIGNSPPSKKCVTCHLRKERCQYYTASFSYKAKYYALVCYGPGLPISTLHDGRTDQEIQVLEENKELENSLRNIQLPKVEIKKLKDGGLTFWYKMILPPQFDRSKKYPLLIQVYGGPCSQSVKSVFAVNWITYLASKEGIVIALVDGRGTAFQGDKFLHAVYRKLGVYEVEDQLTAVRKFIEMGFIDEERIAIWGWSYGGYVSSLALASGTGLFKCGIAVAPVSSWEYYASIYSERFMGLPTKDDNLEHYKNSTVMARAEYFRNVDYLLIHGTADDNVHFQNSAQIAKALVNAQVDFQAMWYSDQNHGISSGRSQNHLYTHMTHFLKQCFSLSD
# Sequence of human FAP (Q12884 whole entry): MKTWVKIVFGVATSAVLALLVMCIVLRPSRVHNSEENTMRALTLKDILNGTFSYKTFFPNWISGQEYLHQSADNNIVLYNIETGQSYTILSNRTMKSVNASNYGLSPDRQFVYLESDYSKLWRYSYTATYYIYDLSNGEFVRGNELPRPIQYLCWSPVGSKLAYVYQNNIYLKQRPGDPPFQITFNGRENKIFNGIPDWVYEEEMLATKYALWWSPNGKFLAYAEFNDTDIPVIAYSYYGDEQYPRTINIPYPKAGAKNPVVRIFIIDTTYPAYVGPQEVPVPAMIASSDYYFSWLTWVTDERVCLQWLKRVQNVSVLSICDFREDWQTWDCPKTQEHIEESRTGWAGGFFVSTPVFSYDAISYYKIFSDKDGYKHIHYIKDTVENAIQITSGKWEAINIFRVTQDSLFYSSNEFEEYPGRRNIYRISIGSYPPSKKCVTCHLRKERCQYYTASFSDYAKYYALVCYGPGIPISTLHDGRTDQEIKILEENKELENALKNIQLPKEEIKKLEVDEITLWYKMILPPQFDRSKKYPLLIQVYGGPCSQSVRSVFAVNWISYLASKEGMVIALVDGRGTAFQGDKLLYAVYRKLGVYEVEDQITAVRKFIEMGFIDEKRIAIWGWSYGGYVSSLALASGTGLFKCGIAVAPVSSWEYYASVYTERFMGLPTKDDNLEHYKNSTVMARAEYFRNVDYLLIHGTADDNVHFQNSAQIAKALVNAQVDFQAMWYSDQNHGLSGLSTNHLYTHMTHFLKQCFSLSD
Structure (SMILES),IC50 [1],half-life at 100 µM [2],IC50 [3],"binding on wild-type (FAP-negative) cells, flow cytometry [4]","staining of FAP-positive cells, flow cytometry [5]","internalization, confocal microscopy [6]","staining pattern, confocal microscopy [6]"
CN(C)C(=N)NCCCC(NC(=O)CCC(=O)Nc1cccc2c(C(=O)NCC(=O)N3CC(F)(F)C[C@H]3C#N)ccnc12)C(=O)N[C@@H](Cc1ccccc1)C(=O)NCCNC(=O)CCC(C(=O)O)N1CCN(CC(=O)O)CCN(CC(=O)O)CCN(CC(=O)O)CC1 (stereo in doubt) [Compound 28],0.00479 nM,> 48 h,0.03 nM,,,,
CN(C)C(=N)NCCC[C@H](NC(=O)CCC(=O)Nc1cccc2c(C(=O)NCC(=O)N3CC(F)(F)C[C@H]3C#N)ccnc12)C(=O)N[C@@H](Cc1ccccc1)C(=O)NCCNC(=S)Nc1ccc2c(c1)C(=O)OC21c2ccc(O)cc2Oc2cc(O)ccc21 [Compound 29],,,,no binding,stained,Internalization was not observed,Membrane-specific staining
C#CC[C@H](NC(=O)[C@H](CCCNC(=N)N(C)C)NC(=O)c1coc(CNC(=O)CCC(=O)N2CC(F)(F)C[C@H]2C#N)c1)C(=O)N[C@@H](CCCCNC(=S)Nc1ccc2c(c1)C(=O)OC21c2ccc(O)cc2Oc2cc(O)ccc21)C(=O)O [Compound 36],,,,no binding,stained,Internalization was not observed,Membrane-specific staining
C#CC[C@@H](NC(=O)[C@H](CCCNC(=N)N(C)C)NC(=O)c1coc(CNC(=O)CCC(=O)N2CC(F)(F)C[C@H]2C#N)c1)C(=O)N[C@@H](CCCCN)C(=O)O [Compound 3],38.4 nM,,60 nM,,,,
